Source: patent publication US7256198B2, “Pyrimidoindolones and methods for using same” (Wyeth, priority 2004, dated 2007)

The molecules below were run against T1, recombinant caspase 3 (Homo sapiens, UniProt P42574) (assay: Caspase 3 Inhibition Assay (Ac-DEVD-AFC fluorogenic substrate cleavage)). Conditions: @ 1 μM compound; recombinant caspase 3, Ac-DEVD-AFC 25 μM, pH 7.2, 23° C.; read-out: percent inhibition at the highest compound concentration.
T1 construct: His tag (C); made in house; host or cells: E. coli
T1 sequence (P42574 29-175 limits assumed): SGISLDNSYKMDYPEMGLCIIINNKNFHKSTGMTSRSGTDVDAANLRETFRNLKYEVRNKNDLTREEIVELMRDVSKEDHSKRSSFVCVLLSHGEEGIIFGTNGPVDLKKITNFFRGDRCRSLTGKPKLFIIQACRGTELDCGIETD
T1 sequence (P42574 176-277 limits assumed): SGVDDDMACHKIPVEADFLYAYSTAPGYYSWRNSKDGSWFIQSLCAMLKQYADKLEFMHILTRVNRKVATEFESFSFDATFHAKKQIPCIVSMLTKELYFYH
Assay type: biochemical
Experimental: Caspase 3 was expressed intracellularly in E. coli with a c-terminal His tag. Fermentation was performed at 25° C. in a B. Braun Biotech Biostat C 10 liter bioreactor vessel. The culture was collected in IL bottles and centrifuged in Komspin KA-7.1000 rotors at approximately 8000 RCF (Relative Centrifugal Force). The cell pellets were re-suspended in 20 mM Tris pH 8.0, 500 mM NaCl, and 5 mM imidazole. The cell suspension was disrupted by passing 5 times through a microfluidizer Model 110Y (Microfluidics Corp, Newton, Mass). After centrifugation (13 kg, 30 min at 4 C), the supernatant was applied to a column of Nickle-NTA agarose. The Caspase 3 was eluted with a gradient of 5 mM to 150 mM imidazole in the above buffer. Fractions containing Caspase 3 were pooled and concentrated with a Millipore Ultrafree filtration device. The concentrated Caspase 3 solution was loaded unto a TSK gel G3000sw column (Tosoh Bioseph LLC), equilibrated with a buffer of 20 mM PIPES pH 7.2, 100 mM NaCl, 1 mM EDTA & 5 mM Cysteine. Fractions containing Caspase 3 were pooled and concentrated. Sometimes CHAPS was added to 0.1% and sucrose to 10% into the protein sample.
Caspase 3 was assayed at 23° C. (room temp) in 96-well plates using the internally quenched tetrapeptide substrate N-acetyl-aspartyl-glutamyl-valyl-aspartate-7-amino-4-trifluoromethyl coumarin (Ac-DEVD-AFC purchased from Biomol). The assays are conducted at pH 7.2 in a buffered system containing 20 mM PIPES, 100 mM NaCl, 1 mM EDTA, 0.1% CHAPS, 10% sucrose and 5 mM L-cysteine. […] A steady state rate of substrate cleavage is obtained for analysis.
The progress curves generated were fitted by computer to equation 1 to generate an IC50 value. Equation 1: y=Bmax*(1−(x^n/(K^n+x^n))), where Bmax is rate in the absence of inhibitor.
Molecule COC[C@@H]1CCCN1C(=O)c1ccc2c(c1)C(=O)C1=NCC(C)(C)CN12 [Example 75, 8-{[(2S)-2-(Methoxymethyl)pyrrolidin-1-yl]carbonyl}-3,3-dimethyl-3,4-dihydropyrimido[1,2-a]indol-10(2H)-one] has an inhibition at 1 µM of 10%.

Same assay, conditions: @ 50 μM compound; recombinant caspase 3, Ac-DEVD-AFC 25 μM, pH 7.2, 23° C.; read-out: percent inhibition at the highest compound concentration
For CC1(C)CN=C2C(=O)c3cc(C(=O)N4CCCC4)ccc3N2C1 [Example 78, 3,3-Dimethyl-8-(pyrrolidin-1-ylcarbonyl)-3,4-dihydropyrimido[1,2-a]indol-10(2H)-one], the inhibition at 50 µM was 37%.
COc1ccc2c(c1)C(=O)C1=NCCCN12 [Example 11, 8-Methoxy-3,4-dihydropyrimido[1,2-a]indol-10(2H)-one] was tested, and the inhibition at 50 µM was 9%.
CC1(C)CN=C2C(=O)c3cc(S(=O)(=O)N4CCC[C@H]4COc4cccnc4Br)ccc3N2C1 [Example 35, 8-[((2S)-2-{[(2-Bromopyridin-3-yl)oxy]methyl}pyrrolidin-1-yl)sulfonyl]-3,3-dimethyl-3,4-dihydropyrimido[1,2-a]indol-10(2H)-one] was tested, and the inhibition at 50 µM was 26%.
In the case of Cc1ccc2c(c1)C(=O)C1=NCCCN12 [Example 10, 8-Methyl-3,4-dihydropyrimido[1,2-a]indol-10(2H)-one], the inhibition at 50 µM is reported as 10%.
CC1(C)CN=C2C(=O)c3cc(C(=O)N4CCc5ccccc54)ccc3N2C1 [Example 80, 8-(2,3-Dihydro-1H-indol-1-ylcarbonyl)-3,3-dimethyl-3,4-dihydropyrimido[1,2-a]indol-10(2H)-one] gave an inhibition at 50 µM of 46%.
CC1(C)CN=C2C(=O)c3cc(C(=O)Nc4ccccc4)ccc3N2C1 [Example 76, 3,3-Dimethyl-10-oxo-N-phenyl-2,3,4,10-tetrahydropyrimido[1,2-a]indole-8-carboxamide] was tested, and the inhibition at 50 µM was 36%.
Molecule CN1CCN(C(=O)c2ccc3c(c2)C(=O)C2=NCC(C)(C)CN23)CC1 [Example 81, 3,3-Dimethyl-8-[(4-methylpiperazin-1-yl)carbonyl]-3,4-dihydropyrimido[1,2-a]indol-10(2H)-one] has an inhibition at 50 µM of 29%.

Same assay, conditions: recombinant caspase 3 0.25 nM, Ac-DEVD-AFC 25 μM, pH 7.2, 23° C.
Work on Cc1ccc(OC[C@@H]2CCCN2S(=O)(=O)c2ccc3c(c2)C(=O)C2=NCC(C)(C)CN23)c(Cl)c1 [Example 26, 8-({(2S)-2-[(2-Chloro-4-methylphenoxy)methyl]pyrrolidin-1-yl}sulfonyl)-3,3-dimethyl-3,4-dihydropyrimido[1,2-a]indol-10(2H)-one] yielded an IC50 of 98 nM.
O=C1C2=NCCCN2c2cc(Cl)c([N+](=O)[O-])cc21 [Example 15, 7-Chloro-8-nitro-3,4-dihydropyrimido[1,2-a]indol-10(2H)-one] gave an IC50 of 4590 nM.
CC1(C)CN=C2C(=O)c3cc(S(=O)(=O)N4CCC[C@H]4COc4cccnc4Cl)ccc3N2C1 [Example 43, 8-[((2S)-2-{[(2-Chloropyridin-3-yl)oxy]methyl}pyrrolidin-1-yl)sulfonyl]-3,3-dimethyl-3,4-dihydropyrimido[1,2-a]indol-10(2H)-one] showed an IC50 of 7 nM.
Work on COC[C@@H]1CCCN1S(=O)(=O)c1ccc2c(c1)C(=O)C1=NCC3(CCCCCC3)CN12 [85/86, 8′-{[(2S)-2-(methoxymethyl)pyrrolidin-1-yl]sulfonyl}spiro[cycloheptane-1,3′-pyrimido[1,2-a]indol]-10′(2′H)-one] yielded an IC50 of 45 nM.
With CC(=O)c1ccc(OC[C@@H]2CCCN2S(=O)(=O)c2ccc3c(c2)C(=O)C2=NCC(C)(C)CN23)c(C)c1 [Example 27, 8-({(2S)-2-[(4-Acetyl-2-methylphenoxy)methyl]pyrrolidin-1-yl}sulfonyl)-3,3-dimethyl-3,4-dihydropyrimido[1,2-a]indol-10(2H)-one] the IC50 was 55 nM.
CC1(C)CN=C2C(=O)c3cc(Cl)ccc3N2C1 [Example 14, 8′-Chloro-3′,3′-dimethyl-3′,4′-dihydropyrimido[1,2-a]indol-10(2H)-one] was tested, and the IC50 was 874 nM.
With CC1(C)CN=C2C(=O)c3cc(S(=O)(=O)N4c5ccccc5C[C@H]4COc4ccccc4)ccc3N2C1 [Example 34, 3,3-Dimethyl-8-{[(2S)-2-(phenoxymethyl)-2,3-dihydro-1H-indol-1-yl]sulfonyl}-3,4-dihydropyrimido[1,2-a]indol-10(2H)-one] the IC50 was 1210 nM.
CC1(C)CN=C2C(=O)c3cc(S(=O)(=O)N4CCC[C@H]4COc4cccc(C(F)(F)F)c4)ccc3N2C1 [Example 31, 3,3-Dimethyl-8-[((2S)-2-{[3-(trifluoromethyl)phenoxy]methyl}pyrrolidin-1-yl)sulfonyl]-3,4-dihydropyrimido[1,2-a]indol-10(2H)-one] was tested, and the IC50 was 45 nM.
Molecule CC1(C)CN=C2C(=O)c3cc(C(=O)N4CCCCC4)ccc3N2C1 [Example 79, 3,3-Dimethyl-8-(piperidin-1-ylcarbonyl)-3,4-dihydropyrimido[1,2-a]indol-10(2H)-one] has an IC50 of 21000 nM.
With CC1(C)CN=C2C(=O)c3cc(S(=O)(=O)N4CCC[C@H]4COc4cccc(Cl)n4)ccc3N2C1 [Example 40, 8-[((2S)-2-{[(6-Chloropyridin-2-yl)oxy]methyl}pyrrolidin-1-yl)sulfonyl]-3,3-dimethyl-3,4-dihydropyrimido[1,2-a]indol-10(2H)-one] the IC50 was 5 nM.
CC1(C)CN=C2C(=O)c3cc(NS(=O)(=O)c4ccc(Cl)c(Cl)c4)ccc3N2C1 [Example 53, 3,4-Dichloro-N-(3,3-dimethyl-10-oxo-2,3,4,10-tetrahydropyrimido[1,2-a]indol-8-yl)benzenesulfonamide] showed an IC50 of 233 nM.
In the case of CC1(C)CN=C2C(=O)c3cc(C#N)ccc3N2C1 [Example 20, 3,3-Dimethyl-10-oxo-2,3,4,10-tetrahydropyrimido[1,2-a]indole-8-carbonitrile], the IC50 is reported as 99 nM.
Molecule COC[C@@H]1CCCN1S(=O)(=O)c1cc2c(cc1Cl)N1CCCN=C1C2=O [Example 5, 7-Chloro-8-{[(2S)-2-(methoxymethyl)pyrrolidin-1-yl-]sulfonyl}-3,4-dihydropyrimido[1,2-a]indol-10(2H)-one] has an IC50 of 189 nM.
Molecule Cc1ccc(OC[C@@H]2CCCN2S(=O)(=O)c2ccc3c(c2)C(=O)C2=NCC(C)(C)CN23)cn1 [Example 44, 3,3-Dimethyl-8-[((2S)-2-{[(6-methylpyridin-3-yl)oxy]methyl}pyrrolidin-1-yl)sulfonyl]-3,4-dihydropyrimido[1,2-a]indol-10(2H)-one] has an IC50 of 19 nM.
Cc1ccc(OC[C@@H]2CCCN2S(=O)(=O)c2ccc3c(c2)C(=O)C2=NCC(C)(C)CN23)c(I)n1 [Example 46, 8-[((2S)-2-{[(2-Iodo-6-methylpyridin-3-yl)oxy]methyl}pyrrolidin-1-yl)sulfonyl]-3,3-dimethyl-3,4-dihydropyrimido[1,2-a]indol-10(2H)-one] gave an IC50 of 17 nM.
CC1(C)CN=C2C(=O)c3cc(NS(=O)(=O)c4ccc(F)c(Cl)c4)ccc3N2C1 [Example 52, 3-Chloro-N-(3,3-dimethyl-10-oxo-2,3,4,10-tetrahydropyrimido[1,2-a]indol-8-yl)-4-fluorobenzenesulfonamide] was tested, and the IC50 was 285 nM.
Cc1ccc(OC[C@@H]2CCCN2S(=O)(=O)c2ccc3c(c2)C(=O)C2=NCC(C)(C)CN23)cc1 [Example 24, 3,3-Dimethyl-8-({(2S)-2-[(4-methylphenoxy)methyl]pyrrolidin-1-yl}sulfonyl)-3,4-dihydropyrimido[1,2-a]indol-10(2H)-one] gave an IC50 of 49 nM.
CC1(C)CN=C2C(=O)c3cc(S(=O)(=O)N4CCC[C@H]4COc4ccc(C(F)(F)F)cn4)ccc3N2C1 [Example 42, 3,3-Dimethyl-8-{[(2S)-2-({[5-(trifluoromethyl)pyridin-2-yl]oxy}methyl)pyrrolidin-1-yl]sulfonyl}-3,4-dihydropyrimido[1,2-a]indol-10(2H)-one] gave an IC50 of 14 nM.
In the case of CC1(C)CN=C2C(=O)c3cc(NS(=O)(=O)c4cccc(Br)c4)ccc3N2C1 [Example 50, 3-Bromo-N-(3,3-dimethyl-10-oxo-2,3,4,10-tetrahydropyrimido[1,2-a]indol-8-yl)benzenesulfonamide], the IC50 is reported as 23.4 nM.
CN1CCN(C[C@@H]2CCCN2S(=O)(=O)c2ccc3c(c2)C(=O)C2=NCC4(CCCC4)CN23)CC1 [Example 84, 8′-({(2S)-2-[(4-Methylpiperazin-1-yl)methyl]pyrrolidin-1-yl}sulfonyl)spiro[cyclopentane-1,3′-pyrimido[1,2-a]indol]-10′(2′H)-one] was tested, and the IC50 was 30 nM.
In the case of CC1(C)CN=C2C(=O)c3cc(C(=O)NC4CCCC4)ccc3N2C1 [Example 77, N-Cyclopentyl-3,3-dimethyl-10-oxo-2,3,4,10-tetrahydropyrimido[1,2-a]indole-8-carboxamide], the IC50 is reported as 35000 nM.
